# Laboratory results taken from PMC7413254 (Nature Communications, 2020).
# Where two headings read alike, the source gives them in different places.
# Columns and labels:
# non-expressing oocytes [1] = test: cells; format: cell-based, Xenopus laevis; conditions: non-expressing oocytes, total [3H]CQ transport, normalised to the oocyte type control
# Summary of the method: (§1)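 PfCRT-expressing and control oocytes: ND96 pH 5.5 → 1.5 h at 27.5 °C → ice-cold ND96 wash → 10% SDS lysis → scintillation count.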
# PfCRT^3D7 [2] = target: T1, PfCRT^3D7 (Plasmodium falciparum, UniProt Q8IBZ9); test: cell-based; format: cell-based; conditions: PfCRT3D7 oocytes, total [3H]CQ transport, normalised to the oocyte type control
# Summary of the method: as §1
# PfCRT^Dd2 [3] = target: T2, PfCRT^Dd2 (Plasmodium falciparum, UniProt Q9N623, A220S/I356T/K76T/M74I/N326S/N75E/Q271E/R371I); test: [3H]CQ uptake into Xenopus oocytes, cis-inhibition by unlabelled solute; format: cell-based; conditions: PfCRTDd2 oocytes, background [3H]CQ accumulation subtracted, normalised to oocyte type control
# Summary of the method: as §1
# PfCRT^Ecu1110 [4] = target: T3, PfCRT^Ecu1110 (Plasmodium falciparum, UniProt Q9N623, A220S/I356L/K76T/N326D); test: as above; format: cell-based; conditions: for Uptake of [3H]CQ (% PfCRTEcu1110 control), cis-inhibition / PfCRT-mediated [3H]CQ transport, cis-inhibition (% PfCRTEcu1110 control): PfCRTEcu1110 oocytes; for Uptake of [3H]CQ (% PfCRTEcu1110 control), cis-inhibition: total [3H]CQ transport, normalised to the oocyte type control; for PfCRT-mediated [3H]CQ transport, cis-inhibition (% PfCRTEcu1110 control): background [3H]CQ accumulation subtracted, normalised to oocyte type control
# Summary of the method: as §1
# non-expressing oocytes [5] = format: cell-based, Xenopus laevis; conditions: non-expressing oocytes, total [3H]CQ transport, normalised to the oocyte type control
# Summary of the method: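 Oocytes (ten per treatment, ≥4 independent frogs/days) were preloaded by injecting VF-6 in 25 nL ND96 at pH 5.0, 5.5, 6.0 or 7.0, or Na^+-free choline buffer, then uptake run 1.5 h, 27.5 °C, ND96 pH 5.5 by default. Internal concentrations assumed ~400 nL oocyte volume.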
# PfCRT^3D7 [6] = target: T1, PfCRT^3D7; test: cell-based; format: cell-based; conditions: for Uptake of [3H]CQ (% PfCRT3D7 control), trans-stimulation / PfCRT-mediated [3H]CQ transport, trans-stimulation (% PfCRT3D7 control): PfCRT3D7 oocytes; for Uptake of [3H]CQ (% PfCRT3D7 control), trans-stimulation: total [3H]CQ transport, normalised to the oocyte type control; for PfCRT-mediated [3H]CQ transport, trans-stimulation (% PfCRT3D7 control): normalised to oocyte type control
# Summary of the method: (§2)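 Transport measured in Xenopus oocytes expressing the transporters, 1.5 h at 27.5 °C in ND96 pH 5.5 unless noted. For trans-stimulation, VF-6 injected in 25 nL ND96 at pH 5.0–7.0 or Na^+-free (choline) buffer; intracellular levels based on ~400 nL oocyte volume. Ten oocytes per treatment, ≥4 experiments.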
# PfCRT^Dd2 [7] = target: T2, PfCRT^Dd2; test: cell-based; format: cell-based; conditions: for Uptake of [3H]CQ (% PfCRTDd2 control), trans-stimulation / PfCRT-mediated [3H]CQ transport, trans-stimulation (% PfCRTDd2 control): PfCRTDd2 oocytes; for Uptake of [3H]CQ (% PfCRTDd2 control), trans-stimulation: total [3H]CQ transport, normalised to the oocyte type control; for PfCRT-mediated [3H]CQ transport, trans-stimulation (% PfCRTDd2 control): normalised to oocyte type control; for [3H]CQ transport (% PfCRTDd2 control), trans-stimulation, PfCRTDd2: PfCRT-mediated component (background subtracted), mean ± SEM, SEM
# Summary of the method: as §2
# PfCRT^Ecu1110 [8] = target: T3, PfCRT^Ecu1110; test: cell-based; format: cell-based; conditions: for PfCRT-mediated [3H]CQ transport, trans-stimulation (% PfCRTEcu1110 control): normalised to oocyte type control; for [3H]CQ transport (% PfCRTDd2 control), trans-stimulation, PfCRTEcu1110: PfCRT-mediated component (background subtracted), sheet title says normalised to PfCRTDd2 control, mean ± SEM, SEM
# Summary of the method: as §2
# PfNT1 = target: T4, PfNT1 (Plasmodium falciparum, UniProt Q8IDM6); test: cell-based; format: cell-based; conditions: PfNT1 oocytes, total [3H]CQ transport, normalised to the oocyte type control
# T4 construct: expressed in transfected cells; host or cells: Xenopus laevis oocytes (stage V-VI), cRNA-injected
# Summary of the method: as §2
# [9] = [test solute]i = 45 mM (30 mM for some solutes due to solubility)
# [10] = [test solute]i = 5 mM (intracellular)
# [11] = [test solute]i = 45 mM (intracellular; 30 mM for some solutes due to solubility)
# [12] = [test solute]i = 5 mM (injected)
# T2 sequence (Q9N623 whole entry A220S/I356T/K76T/M74I/N326S/N75E/Q271E/R371I): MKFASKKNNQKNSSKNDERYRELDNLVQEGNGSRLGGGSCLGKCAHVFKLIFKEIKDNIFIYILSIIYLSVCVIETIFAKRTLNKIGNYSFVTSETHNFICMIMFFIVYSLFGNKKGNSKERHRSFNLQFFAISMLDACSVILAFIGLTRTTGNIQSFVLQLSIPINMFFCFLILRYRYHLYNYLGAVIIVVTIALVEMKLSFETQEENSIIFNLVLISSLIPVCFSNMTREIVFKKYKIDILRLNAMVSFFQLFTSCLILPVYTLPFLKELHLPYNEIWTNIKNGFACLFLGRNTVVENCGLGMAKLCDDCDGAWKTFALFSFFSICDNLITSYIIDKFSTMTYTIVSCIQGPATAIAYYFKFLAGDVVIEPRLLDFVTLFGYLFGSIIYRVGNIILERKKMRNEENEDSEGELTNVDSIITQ
# T1 sequence (Q8IBZ9 59-398): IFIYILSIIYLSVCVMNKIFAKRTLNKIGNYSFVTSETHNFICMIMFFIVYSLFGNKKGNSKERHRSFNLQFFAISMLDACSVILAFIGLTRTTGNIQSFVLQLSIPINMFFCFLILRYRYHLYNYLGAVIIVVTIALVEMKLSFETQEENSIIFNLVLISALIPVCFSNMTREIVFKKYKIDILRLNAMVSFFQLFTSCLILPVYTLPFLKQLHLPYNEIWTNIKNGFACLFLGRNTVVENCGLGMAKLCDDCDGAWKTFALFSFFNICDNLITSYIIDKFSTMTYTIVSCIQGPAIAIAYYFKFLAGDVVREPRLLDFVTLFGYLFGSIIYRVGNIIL
# T3 sequence (Q9N623 whole entry A220S/I356L/K76T/N326D): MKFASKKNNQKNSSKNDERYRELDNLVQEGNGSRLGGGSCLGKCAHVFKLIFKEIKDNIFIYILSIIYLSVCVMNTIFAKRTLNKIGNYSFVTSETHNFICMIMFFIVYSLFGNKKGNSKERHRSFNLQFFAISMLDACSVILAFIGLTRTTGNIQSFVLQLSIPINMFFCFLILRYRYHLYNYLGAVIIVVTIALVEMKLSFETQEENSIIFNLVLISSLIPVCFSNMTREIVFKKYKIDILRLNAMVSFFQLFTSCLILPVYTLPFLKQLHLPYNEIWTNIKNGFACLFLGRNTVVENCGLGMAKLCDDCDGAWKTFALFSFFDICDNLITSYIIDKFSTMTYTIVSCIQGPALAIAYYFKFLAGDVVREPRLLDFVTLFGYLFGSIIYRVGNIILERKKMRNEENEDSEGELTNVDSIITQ
# T4 sequence (Q8IDM6 whole entry): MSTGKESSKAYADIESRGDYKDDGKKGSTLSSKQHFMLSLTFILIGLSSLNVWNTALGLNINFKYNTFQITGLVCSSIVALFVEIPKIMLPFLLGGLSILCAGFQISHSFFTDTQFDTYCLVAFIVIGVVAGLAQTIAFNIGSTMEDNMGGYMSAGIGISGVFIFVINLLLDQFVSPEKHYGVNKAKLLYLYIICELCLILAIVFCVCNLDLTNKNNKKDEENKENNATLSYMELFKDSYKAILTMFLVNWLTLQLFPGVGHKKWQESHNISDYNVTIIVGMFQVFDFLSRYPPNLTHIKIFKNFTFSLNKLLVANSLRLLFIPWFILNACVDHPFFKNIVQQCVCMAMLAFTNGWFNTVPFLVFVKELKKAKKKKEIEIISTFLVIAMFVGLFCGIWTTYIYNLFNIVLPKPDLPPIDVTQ
substance,measurement,setting,value
HVDD [HD-4],"Uptake of [3H]CQ (% non-expressing oocyte control), cis-inhibition",non-expressing oocytes [1]; [test solute] = 0.5 mM,99 ± 5.3 % non-expressing oocyte control
same,"Uptake of [3H]CQ (% non-expressing oocyte control), cis-inhibition",non-expressing oocytes [1]; [test solute] = 1 mM,100 ± 5.2 % non-expressing oocyte control
same,"Uptake of [3H]CQ (% non-expressing oocyte control), cis-inhibition",non-expressing oocytes [1]; [test solute] = 2 mM,97 ± 5.5 % non-expressing oocyte control
same,"Uptake of [3H]CQ (% PfCRT3D7 control), cis-inhibition",PfCRT^3D7 [2]; [test solute] = 0.5 mM,100 ± 3.8 % PfCRT3D7 control
same,"Uptake of [3H]CQ (% PfCRT3D7 control), cis-inhibition",PfCRT^3D7 [2]; [test solute] = 1 mM,102 ± 3.7 % PfCRT3D7 control
same,"Uptake of [3H]CQ (% PfCRT3D7 control), cis-inhibition",PfCRT^3D7 [2]; [test solute] = 2 mM,99 ± 3.6 % PfCRT3D7 control
same,"PfCRT-mediated [3H]CQ transport, cis-inhibition (% PfCRTDd2 control)",PfCRT^Dd2 [3]; [test solute] = 0.5 mM,44 ± 2.3 % PfCRTDd2 control
same,"PfCRT-mediated [3H]CQ transport, cis-inhibition (% PfCRTDd2 control)",PfCRT^Dd2 [3]; [test solute] = 1 mM,31 ± 1.0 % PfCRTDd2 control
same,"PfCRT-mediated [3H]CQ transport, cis-inhibition (% PfCRTDd2 control)",PfCRT^Dd2 [3]; [test solute] = 2 mM,19 ± 0.8 % PfCRTDd2 control
same,"Uptake of [3H]CQ (% PfCRTEcu1110 control), cis-inhibition",PfCRT^Ecu1110 [4]; [test solute] = 0.5 mM,53 ± 8.3 % PfCRTEcu1110 control
same,"Uptake of [3H]CQ (% PfCRTEcu1110 control), cis-inhibition",PfCRT^Ecu1110 [4]; [test solute] = 1 mM,44 ± 6.1 % PfCRTEcu1110 control
same,"Uptake of [3H]CQ (% PfCRTEcu1110 control), cis-inhibition",PfCRT^Ecu1110 [4]; [test solute] = 2 mM,32 ± 4.7 % PfCRTEcu1110 control
same,"PfCRT-mediated [3H]CQ transport, cis-inhibition (% PfCRTEcu1110 control)",PfCRT^Ecu1110 [4]; [test solute] = 0.5 mM,49 ± 1.4 % PfCRTEcu1110 control
same,"PfCRT-mediated [3H]CQ transport, cis-inhibition (% PfCRTEcu1110 control)",PfCRT^Ecu1110 [4]; [test solute] = 1 mM,39 ± 3.1 % PfCRTEcu1110 control
same,"PfCRT-mediated [3H]CQ transport, cis-inhibition (% PfCRTEcu1110 control)",PfCRT^Ecu1110 [4]; [test solute] = 2 mM,28 ± 1.3 % PfCRTEcu1110 control
same,"[3H]CQ transport (% PfCRTEcu1110 control), cis-inhibition, PfCRTEcu1110","PfCRT^Ecu1110 [4]; cis-inhibition, [test solute] = 2 mM, PfCRT-mediated component (background subtracted), sheet title says normalised to PfCRTDd2 control, mean ± SEM, SEM",9.0 ± 0.03 % PfCRTEcu1110 control
same,"Uptake of [3H]CQ (% non-expressing oocyte control), trans-stimulation",non-expressing oocytes [5]; [test solute]i = 5 mM,100 ± 3.6 % non-expressing oocyte control
same,"Uptake of [3H]CQ (% non-expressing oocyte control), trans-stimulation",non-expressing oocytes [5]; [9],98 ± 3.3 % non-expressing oocyte control
same,"Uptake of [3H]CQ (% PfCRT3D7 control), trans-stimulation",PfCRT^3D7 [6]; [test solute]i = 5 mM,98 ± 4.1 % PfCRT3D7 control
same,"Uptake of [3H]CQ (% PfCRT3D7 control), trans-stimulation",PfCRT^3D7 [6]; [9],96 ± 1.7 % PfCRT3D7 control
same,"[3H]CQ transport (% PfCRT3D7 control), trans-stimulation, PfCRT3D7",PfCRT^3D7 [6]; SEM,0.1 ± 0.01
same,"PfCRT-mediated [3H]CQ transport, trans-stimulation (% PfCRT3D7 control)",PfCRT^3D7 [6]; [10],96 ± 3.3 % PfCRT3D7 control
same,"PfCRT-mediated [3H]CQ transport, trans-stimulation (% PfCRT3D7 control)",PfCRT^3D7 [6]; [11],94 ± 4.9 % PfCRT3D7 control
same,"Uptake of [3H]CQ (% PfCRTDd2 control), trans-stimulation",PfCRT^Dd2 [7]; [test solute]i = 5 mM,99 ± 4.3 % PfCRTDd2 control
same,"Uptake of [3H]CQ (% PfCRTDd2 control), trans-stimulation",PfCRT^Dd2 [7]; [9],100 ± 2.4 % PfCRTDd2 control
same,"PfCRT-mediated [3H]CQ transport, trans-stimulation (% PfCRTDd2 control)",PfCRT^Dd2 [7]; [10],97 ± 2.9 % PfCRTDd2 control
same,"PfCRT-mediated [3H]CQ transport, trans-stimulation (% PfCRTDd2 control)",PfCRT^Dd2 [7]; [11],98 ± 3.9 % PfCRTDd2 control
same,"[3H]CQ transport (% PfCRTDd2 control), trans-stimulation, PfCRTDd2",PfCRT^Dd2 [7]; [12],97 ± 2.9 % PfCRTDd2 control
same,"[3H]CQ transport (% PfCRTDd2 control), trans-stimulation, PfCRTDd2",PfCRT^Dd2 [7]; [9],98 ± 3.9 % PfCRTDd2 control
same,"Uptake of [3H]CQ (% PfCRTEcu1110 control), trans-stimulation","PfCRT^Ecu1110 [8]; PfCRTEcu1110 oocytes, [test solute]i = 45 mM (30 mM for some solutes due to solubility), total [3H]CQ transport, normalised to the oocyte type control",99 ± 3.2 % PfCRTEcu1110 control
same,"PfCRT-mediated [3H]CQ transport, trans-stimulation (% PfCRTEcu1110 control)","PfCRT^Ecu1110 [8]; [test solute]i = 5 mM (intracellular), PfCRTEcu1110 oocytes",99 ± 4.9 % PfCRTEcu1110 control
same,"PfCRT-mediated [3H]CQ transport, trans-stimulation (% PfCRTEcu1110 control)","PfCRT^Ecu1110 [8]; [test solute]i = 45 mM (intracellular; 30 mM for some solutes due to solubility), PfCRTEcu1110 oocytes",97 ± 4.8 % PfCRTEcu1110 control
same,"[3H]CQ transport (% PfCRTDd2 control), trans-stimulation, PfCRTEcu1110",PfCRT^Ecu1110 [8]; [12],30 ± 1.6 % PfCRTEcu1110 control
same,"[3H]CQ transport (% PfCRTDd2 control), trans-stimulation, PfCRTEcu1110",PfCRT^Ecu1110 [8]; [9],29 ± 1.5 % PfCRTEcu1110 control
same,"Uptake of [3H]CQ (% PfNT1 control), trans-stimulation",PfNT1; [test solute]i = 5 mM,100 ± 2.7 % PfNT1 control
same,"Uptake of [3H]CQ (% PfNT1 control), trans-stimulation",PfNT1; [9],99 ± 2.5 % PfNT1 control
